Assay results published in patent US20040097420A1, “Proteasome regulation of NF-kB activity” (Harvard College, priority 1994, published 2004).
Non-standard residues stand in square brackets, D forms with d. Residues, ends and D or L forms follow the SMILES beside them. *: point of attachment. Nle = CCCC[C@H](N)C(=O)O; Cbz = O=C(OCc1ccccc1)*

Columns and labels:
[1] = system: p60Tth processing by proteasome; experiment: In vitro processing of p60Tth with purified proteasomes / extract; type: biochemical; details: processing reaction with purified 20/26S proteasomes or fraction II and Pr−(II) extract
Protocol: The p60Tth precursor (or p105) was translated in wheat germ extract. The substrate protein was mixed with HeLa cell cytoplasmic extract (S100) in a processing buffer containing 12 mM Tris, pH 7.5, 60 mM KCl, 20 mM creatine phosphate, 3.5 mM MgCl2 and 1 mM ATP. After incubation at 30° C for one hour, the reaction mixtures were subjected to immunoprecipitation with anti-p50 Ab and the proteins were resolved by SDS-PAGE. In the Apyrase treated sample, the p60 was incubated with 10 U of enzyme at 37° C. for 30 minutes to inactivate residual ATP in the wheat germ extract before adding the HeLa cell S100.
Increasing amounts of purified 20/26S proteasomes or a proteasome-enriched fraction from reticulocyte lysate, fraction II, were added alone or were combined with Pr^−(II) extract in a processing reaction (see Example 4). In addition, processing was inhibited by ATPγS, a non-hydrolyzable analogue of ATP that allows ubiquitination but inhibits proteasome function (lanes 3-5).

PC12 cells = details: Tsubuki et al. (1993); cited from earlier work
26S Proteasome Complex = biological target: T1, 26S Proteasome Complex (Oryctolagus cuniculus, UniProt G1T4Q9); experiment: MG 101 inhibition of muscle 26S proteasome complex (Table IV); type: biochemical; details: enzyme preparation: 26S Proteasome Complex (muscle)
T1 sequence (G1T4Q9 1-263): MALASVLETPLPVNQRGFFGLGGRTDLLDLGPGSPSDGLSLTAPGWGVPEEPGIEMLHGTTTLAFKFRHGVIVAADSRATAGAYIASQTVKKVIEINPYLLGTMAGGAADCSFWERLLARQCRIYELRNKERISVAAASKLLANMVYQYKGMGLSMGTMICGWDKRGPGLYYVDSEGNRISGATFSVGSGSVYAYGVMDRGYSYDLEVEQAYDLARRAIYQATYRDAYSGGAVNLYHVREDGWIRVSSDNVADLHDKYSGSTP

[2] = biological target: T2, 20S Proteasome + Muscle 180 kDa Activator (Oryctolagus cuniculus, UniProt G1T4Q9); experiment: MG 101 inhibition of 20S proteasome + muscle 180 kDa activator (Table IV); type: biochemical; details: enzyme preparation: 20S Proteasome + Muscle 180 kDa Activator
T2 sequence (G1T4Q9 1-263): T1 sequence (G1T4Q9 1-263)

20S Proteasome [3] = biological target: T3, 20S Proteasome (Oryctolagus cuniculus, UniProt G1T4Q9); experiment: Inhibition of the 20S proteasome (kinetic experiments, Ki); type: biochemical, Rabbit; design: Ki 20 S; substrate Suc-LLVY-AMC; details: Rabbit muscle, SDS-activated; substrate Suc-LLVY-AMC
T3 sequence (G1T4Q9 1-263): T1 sequence (G1T4Q9 1-263)
Description: (§1) Tables I-III summarize results from kinetic experiments that measured the inhibition of the 20S and 26S proteasomes, as well as cathepsin B and calpain. In these tables, Ki values are reported, which are dissociation constants for the equilibrium that is established when enzyme and inhibitor interact to form the enzyme:inhibitor complex.
(§2) The substances and assay conditions are briefly summarized in the footnotes to Table I. MG 101 and MG 102, also known as Calpain Inhibitor I and II, were purchased from Calbiochem as catalogue products.
Table V summarizes data for the inhibition of the 20S proteasome by various tripeptide aldehyde inhibitors.

20S Proteasome [4] = biological target: T3, 20S Proteasome; experiment: MG 101 inhibition of muscle 20S proteasome (Table IV); type: biochemical; details: enzyme preparation: 20S Proteasome (muscle)
[5] = biological target: calpain, 80 kD catalytic subunit; experiment: Inhibition of calpain (Ki); type: biochemical; details: Rabbit muscle, substrate Suc-LLVY-AMC, [CaCl2] = 1 mM, [DTT] = 2 mM, pH 7.8, 20° C.
Description: as §1

26S proteasome = biological target: T4, 26S proteasome (Oryctolagus cuniculus, UniProt G1T4Q9); experiment: Inhibition of the 26S proteasome (kinetic experiments, Ki); type: biochemical; details: Rabbit muscle; substrate Suc-LLVY-AMC; [Mg:ATP] = 2 mM
T4 sequence (G1T4Q9 1-263): T1 sequence (G1T4Q9 1-263)
Description: as §1, §2

20S Proteasome ± SDS = biological target: T5, 20S Proteasome ± SDS (Oryctolagus cuniculus, UniProt G1T4Q9); experiment: MG 101 inhibition of 20S proteasome with SDS (Table IV); type: biochemical; details: enzyme preparation: 20S Proteasome ± SDS
T5 sequence (G1T4Q9 1-263): T1 sequence (G1T4Q9 1-263)

[6] = biological target: T6, chymotrypsin-like activity of the proteasome (UniProt Q32KL2); details: slow binding inhibitors; Vinitsky et al., Biochemistry 31:9421-9428 (1992); cited from earlier work
T6 sequence (Q32KL2 1-263): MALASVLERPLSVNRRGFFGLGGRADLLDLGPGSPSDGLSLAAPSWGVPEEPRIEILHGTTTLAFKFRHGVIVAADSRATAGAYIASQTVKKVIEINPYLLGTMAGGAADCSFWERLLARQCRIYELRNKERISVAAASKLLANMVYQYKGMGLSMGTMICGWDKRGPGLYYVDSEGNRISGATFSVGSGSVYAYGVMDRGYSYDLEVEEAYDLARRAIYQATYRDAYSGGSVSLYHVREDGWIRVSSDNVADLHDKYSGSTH

cathepsin B = biological target: T7, cathepsin B (Bos taurus, UniProt P07688); experiment: Inhibition of cathepsin B (Ki); type: biochemical; details: Bovine spleen; substrate Z-RR-AMC; [DTT] = 2 mM, [EDTA] = 5 mM, pH 5.5, 37° C.; read-out: Ki Cat B
T7 construct: Bovine spleen; Substrate: Z-RR-AMC; from tissue; host or cells: bovine spleen
Description: as §1

Row | SMILES | Ki (20S Proteasome [3]) [nM] | Ki [5] [nM] | Ki (26S proteasome) [nM] | Ki [6] [nM] | Ki (cathepsin B) [nM] | other results
1 | Nc1ncnc2c1ncn2[C@@H]1O[C@H](COP(=O)(O)OP(=O)(O)OP(O)(O)=S)[C@@H](O)[C@H]1O [ATPγS] |  |  |  |  |  | effect on p60Tth processing in vitro [1]: inhibited
2 | CC(C)C[C@@H](C=O)NC(=O)[C@H](CC(C)C)NC(=O)[C@H](CC(C)C)NC(=O)OCc1ccccc1 [benzyloxycarbonyl(Z)-Leu-Leu-leucinal, Z-L-Leucine-L-Leucine-L-Leucinal] (Cbz-Leu-Leu-Leu-aldehyde) |  |  |  |  |  | optimal concentration initiating neurite outgrowth (PC12 cells): 30 nM
3 | CCCC[C@@H](C=O)NC(=O)[C@H](CC(C)C)NC(=O)[C@H](CC(C)C)NC(C)=O [MG 101, Ac-Leu-Leu-Nle-H] (Ac-Leu-Leu-[Nle]-aldehyde) | 140 | 5 | 1000 | 5700 | 6 | Ki (26S Proteasome Complex): 3000 nM; Ki [2]: 600 nM; Ki (20S Proteasome [4]): 7000 nM; Ki (20S Proteasome ± SDS): 140 nM
4 | CC(C)C[C@H](NC(=O)OCc1ccccc1)C(=O)N[C@@H](CC(C)C)C(=O)N[C@H](C=O)Cc1ccccc1 [MG 110, Z-Leu-Leu-Phe-H] (Cbz-Leu-Leu-Phe-aldehyde) | 48 | 62 | 180 | 460 | 100 | 
5 | CCOC(=O)C(=O)[C@H](Cc1ccccc1)NC(=O)[C@H](CC(C)C)NC(=O)[C@H](CC(C)C)NC(=O)OCc1ccccc1 [Z-Leu-Leu-Phe-COOEt] |  |  |  | 53000 |  | 
